We go through one substance from patent publication US9089509B2, “Method of treatment of age-related macular degeneration” (YEDA RESEARCH AND DEVELOPMENT CO., LTD., priority 2006, dated 2015).

Test [1] concerns neural stem/progenitor cells (NPCs) co-cultured with microglia. As to the kind of experiment: Co-culture of GFP-expressing neural progenitor cells with treated microglia, neurogenesis (GFP+/βIII-T+ cells). The test is classed as cell-based, mouse. The conditions noted are these: cytokine 10 ng/ml added for 48 h after 48 h aggregated Aβ(1-40) 5 μM. On the procedure: Coronal sections (2 mm thick) of tissue containing the subventricular zone of the lateral ventricle were obtained from the brains of adult C57Bl/6J mice. The tissue was minced and then incubated for digestion at 37° C., 5% CO2 for 45 min in Earle's balanced salt solution containing 0.94 mg/ml papain (Worthington, Lakewood, N.J.) and 0.18 mg/ml of L-cysteine and EDTA. After centrifugation at 110×g for 15 min at room temperature, the tissue was mechanically dissociated by pipette trituration. Cells obtained from single-cell suspensions were plated (3500 cells/cm^2) in 75-cm^2 Falcon tissue-culture flasks (BD Biosciences, San Diego, Calif.), in neural stem/progenitor cell (NPC)-culturing medium [Dulbecco's modified Eagles's medium (DMEM)/F12 medium (Gibco/Invitrogen, Carlsbad, Calif.) containing 2 mM L-glutamine, 0.6% glucose, 9.6 μg/ml putrescine, 6.3 ng/ml progesterone, 5.2 ng/ml sodium selenite, 0.02 mg/ml insulin, 0.1 mg/ml transferrin, 2 μg/ml heparin (all from Sigma-Aldrich, Rehovot, Israel), fibroblast growth factor-2 (human recombinant, 20 ng/ml), and epidermal growth factor (human recombinant, 20 ng/ml; both from Peprotech, Rocky Hill, N.J.)]. Spheres were passaged every 4-6 days and replated as single cells. Green fluorescent protein (GFP)-expressing NPCs were obtained as previously described (Pluchino et al., 2003).
Brains from neonatal (P0-P1) C57Bl/6J mice were stripped of their meninges and minced with scissors under a dissecting microscope (Zeiss, Stemi DV4, Germany) in Leibovitz-15 medium (Biological Industries, Kibbutz Beit Ha-Emek, Israel). After trypsinization (0.5% trypsin, 10 min, 37° C./5% CO2), the tissue was triturated. The cell suspension was washed in culture medium for glial cells [DMEM supplemented with 10% fetal calf serum (FCS; Sigma-Aldrich, Rehovot), L-glutamine (1 mM), sodium pyruvate (1 mM), penicillin (100 U/ml), and streptomycin ([…])] and cultured at 37° C./5% CO2 in 75-cm^2 Falcon tissue-culture flasks (BD Biosciences) coated with poly-D-lysine (PDL) (10 mg/ml; Sigma-Aldrich, Rehovot) in borate buffer (2.37 g borax and 1.55 g boric acid dissolved in 500 ml sterile water, pH 8.4) for 1 h, then rinsed thoroughly with sterile, glass-distilled water. Half of the medium was changed after 6 h in culture and every 2nd day thereafter, starting on day 2, for a total culture time of 10-14 days. […]

Test [2] relates to microglia. The conditions noted are these: added to microglia activated by aggregated Aβ (Butovsky et al., 2005); cited from earlier work.
Test [3] concerns microglia. As to the kind of experiment: CD11c expression and morphology in primary culture of mouse microglia. It counts as cell-based. The protocol: Brains from neonatal (P0-P1) C57Bl/6J mice were stripped of their meninges and minced with scissors under a dissecting microscope (Zeiss, Stemi DV4, Germany) in Leibovitz-15 medium (Biological Industries, Kibbutz Beit Ha-Emek, Israel). After trypsinization (0.5% trypsin, 10 min, 37° C./5% CO2), the tissue was triturated. The cell suspension was washed in culture medium for glial cells [DMEM supplemented with 10% fetal calf serum (FCS; Sigma-Aldrich, Rehovot), L-glutamine (1 mM), sodium pyruvate (1 mM), penicillin (100 U/ml), and streptomycin ([…])] and cultured at 37° C./5% CO2 in 75-cm^2 Falcon tissue-culture flasks (BD Biosciences) coated with poly-D-lysine (PDL) (10 mg/ml; Sigma-Aldrich, Rehovot) in borate buffer (2.37 g borax and 1.55 g boric acid dissolved in 500 ml sterile water, pH 8.4) for 1 h, then rinsed thoroughly with sterile, glass-distilled water. Half of the medium was changed after 6 h in culture and every 2nd day thereafter, starting on day 2, for a total culture time of 10-14 days. Microglia were shaken off the primary mixed brain glial cell cultures (150 rpm, 37° C., 6 h) with maximum yields between days 10 and 14, seeded (10^5 cells/ml) onto PDL-pretreated 24-well plates (1 ml/well; Corning, N.Y., N.Y.), and grown in culture medium for microglia [RPMI-1640 medium (Sigma-Aldrich, Rehovot) supplemented with 10% FCS, L-glutamine (1 mM), sodium pyruvate (1 mM), β-mercaptoethanol ([…]), penicillin (100 U/ml), and streptomycin ([…])]. The cells were allowed to adhere to the surface of a PDL-coated culture flask (30 min, 37° C./5% CO2), and non-adherent cells were rinsed off.
Cover slips from co-cultures of NPCs and mouse microglia were washed with PBS, fixed as described above, treated with a permeabilization/blocking solution containing 10% FCS, 2% bovine serum albumin, 1% glycine, and 0.1% Triton X-100 (Sigma-Aldrich, Rehovot), and stained with a combination of mouse anti-[…] (anti-βIII-T) isoform C-terminus antibodies (1:500; Chemicon, Temecula, Calif.), rat anti-CD11b (MAC1; 1:50; BD—Pharmingen, Franklin Lakes, N.J.) and hamster anti-CD11c (1:100; eBioscience, San Diego, Calif.). To capture the microglia FITC- or Cy3-conjugated Bandeiraea simplicifolia isolectin B4 (IB-4; 1:50; Sigma-Aldrich, Rehovot) was used. To detect expression of human Aβ anti-Aβ (human amino-acid residues 1-17) (mouse, clone 6E10; Chemicon) was used.
On the basis of our previous findings, we suspected that the switch from a CD11b^+/CD11c^−/IGF-1^− to a CD11b^+/CD11c^+/IGF-I^+ microglial phenotype in the Cop-1 vaccinated Tg-AD mice might be attributable to IL-4. We examined this possibility in vitro. […] In contrast, the expression of CD11c induced by IL-4 was not transient. Quantification of the ability of IL-4 to induce CD11c expression even after the microglia were pretreated with Aβ is shown in FIG. 4D.
Thus, upregulation of CD11c on bone marrow derived myeloid cells by […] will allow the cells to reach injured sites and induce beneficial effect.

For test [4], the system named is microglia. As to the kind of experiment: Engulfment of aggregated Aβ(1-40) by activated microglia. It counts as cell-based, mouse. To be noted: 10 ng/ml; Aβ(1-40) 5 μg/ml for 1 h, vs untreated microglia (FIG. 5). On the procedure: FIGS. 5A-5B show engulfment of aggregated Aβ by activated microglia. Microglia were treated with IL-4 (10 ng/ml) 24 h after seeding (MG(IL-4)) or were left untreated for 48 h (MG(−)). The media were then replaced by a labeling medium (DMEM containing 10 mg/ml bovine serum albumin), and aggregated Aβ(1-40) was added (5 μg/ml) for 1 h. Following incubation the cultures were fixed and immunostained with antibodies directed to human Aβ and co-stained for microglia (IB-4). (FIG. 5A) Confocal photomicrographs. (FIG. 5B) Quantitative analysis expressed as intensity per cell. Results of one of two experiments, each containing eight replicates (20-30 cells per replicate) per group are presented (means±SD).
Brains from neonatal (P0-P1) C57Bl/6J mice were stripped of their meninges and minced with scissors under a dissecting microscope (Zeiss, Stemi DV4, Germany) in Leibovitz-15 medium (Biological Industries, Kibbutz Beit Ha-Emek, Israel). After trypsinization (0.5% trypsin, 10 min, 37° C./5% CO2), the tissue was triturated. […]

As for “IL-4: recombinant mouse IL-4, a cytokine derived from T-helper (Th)-2 cells”, in test [1], the “counteracting the negative effect of Aβ-activated microglia on NPC survival and differentiation” value was “partially counteracted”. Besides, the “effect on Aβ-induced down-regulation of IGF-I, up-regulation of TNF-α and failure to act as APCs” value in the test with microglia [2] was “can reverse the down-regulation of IGF-I expression”. Also, in the test on microglia [3] (5-day microglia cultures, vs untreated (FIG. 4A)), the “CD11c expression by microglia” value is reported as “abundantly expressed”. Moreover, the “persistence of induced CD11c expression as a function of time in culture” value with microglia [3] (FIG. 4C) is “not transient”. Besides, in the test with microglia [3] (cytokine added 3 days after exposure to aggregated Aβ(1-40) (FIG. 4B, 4D)), the “CD11c expression by microglia pre-exposed to Aβ” value is “able to induce them to express CD11c”. The “amoeboid morphology of Aβ-treated microglia” value with microglia [3] (on addition of cytokine, dendritic-like morphology (FIG. 4B)) is recorded as “reversible on addition of IL-4”. The “ability of microglia to engulf aggregated Aβ(1-40) (intracellular immunoreactive Aβ)” value in the test on microglia [4] is reported as “did not interfere with the ability of microglia to engulf Aβ”.
